According to paper PMC5920042, “KH176 Safeguards Mitochondrial Diseased Cells from Redox Stress-Induced Cell Death by Interacting with the Thioredoxin System/Peroxiredoxin Enzyme Machinery” (Scientific Reports, 2018):
pEC50: −log10 of the molar value.

Experiments:
[1] = test system: OXPHOS deficient cell lines; experiment: Redox Stress Survival assay, extended panel of OXPHOS deficient cell lines; type: cell-based; conditions: Homo sapiens, BSO insult, read-out: EC50 values, range over the panel of cell lines
Description: Cells were seeded at a density of 4 × 10^3 cells/well into 96-wells black plates and incubated for 24 h. To induce redox stress, semi-logarithmic dilutions of buthionine sulphoximine (BSO, #B2515, Sigma Aldrich) up to 100 µM were added to the cells in culture medium and incubated for 24 h. Cell viability was assessed by quantification of cellular conversion of Calcein AM into fluorescent Calcein. Briefly, after having discarded the BSO containing medium, cells were washed once with M199 without phenol red and loaded with 2 µM Calcein AM (#65-0853-39, Affimetrix eBioscience) in M199 without phenol red for 25 min. At the end of the incubation period, the excess of the dye was washed with M199 without phenol red and Calcein fluorescence was measured with a scanning microplate reader (BMG FLUOstar Omega; Ex. 480 nm, Em. 520 nm). For compound screening and target identification measurements cells were treated with 200 µM BSO alone or in co-incubation with semi-logarithmic dilutions of the test compound. Additionally, where indicated, increasing doses of Auranofin (AFN, #BML-EI206-0100, Enzo) or Aurothioglucose (ATG, #A0606, Sigma Aldrich) were co-incubated with BSO and the test compound. In all cases, cell viability was assessed 24 h after the treatment.

[2] = cited from earlier work
[3] = Intracellular conversion of KH176 into KH176m (LC-MS/MS); conditions: 24 hours incubation with 3 µM KH176
Description: Cells were seeded at a density of 125 × 10^3 cells/well into 6-wells transparent plates (#657160, Greiner Bio-one) and incubated for 24 h. The culture medium was then replaced with fresh medium containing 3 µM KH176 and the cells were incubated for an additional 24 h. At the end of the treatment time, cells were washed twice with ice-cold PBS (#200120169, Thermo Fischer Scientific) before deprotenization with perchloric acid. The samples were then analyzed with standard LC-MS/MS system (Accela HPLC system, Thermo Fischer Scientific) equipped with a Zorbax Eclipse Plus C18 analytical column (Rapid Resolution HD 1.8 μm; 50 × 2.1 mm, Agilent, USA) and coupled with a UHPLC Guard Zorbax Eclipse Plus C18 pre-column (1.8 µm; 5 × 2.1 mm, Agilent). After separation the eluate was directly passed into a TSQ Vantage tandem mass spectrometer (Thermo Fischer Scientific) equipped with an electro-spray ionization source. Detection of the compounds was based on isolation of the protonated molecular ion, [M + H]+, and subsequent MS/MS fragmentations and selected reaction monitoring were performed. Proprietary compounds of Khondrion were used as internal standards.

[4] = target: T1, CCDC101 (Homo sapiens, UniProt Q96ES7); experiment: Surface Plasmon Resonance binding; conditions: SPR
T1 construct: purchased Abcam Ab124547
T1 sequence (Q96ES7 1-293): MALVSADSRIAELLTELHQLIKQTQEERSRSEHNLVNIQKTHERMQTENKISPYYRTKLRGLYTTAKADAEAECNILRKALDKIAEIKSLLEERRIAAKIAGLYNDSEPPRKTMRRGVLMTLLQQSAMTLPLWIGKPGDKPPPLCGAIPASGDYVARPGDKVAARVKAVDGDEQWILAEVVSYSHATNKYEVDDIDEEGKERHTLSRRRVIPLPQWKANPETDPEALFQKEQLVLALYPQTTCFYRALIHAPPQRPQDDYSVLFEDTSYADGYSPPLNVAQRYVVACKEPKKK
Description: Prior to protein immobilization all proteins were dialyzed against HBS-E (10 mM Hepes, 150 mM NaCl, 3 mM EDTA) buffer that was previously filtered through a 0.45 µM membrane using dialyze slide according to the manufacturer instruction. Human recombinant proteins peroxiredoxin 2 (Novus Biological NBC1-25855) and CCDC101 (Abcam Ab124547) were immobilized on CM5 (carboxymethylated dextran covalently attached to a gold surface) using the amine coupling method according to manufacturer’s recommendation (Biacore, GE Healthcare). Briefly the CM5 surface was activated with the mixture of EDC/NHS. Recombinant proteins at dilution 1 µg/ml in a corresponding buffer i.e. Peroxiredoxin 2 and CCDC101 in sodium acetate buffer 100 mM (pH 4.9). The control channel was activated with EDC/NHS. […] KH176 andKH176m were solubilized in HBSS at stock solution 1 mM. […] The sensor chip surface was regenerated with 1 mM HCl. The specific binding profiles were obtained after subtracting the response signal from the control empty channel and from blank-buffer injection. The specific binding was calculated using Biaeval 3 software (Biacore, GE Healthcare) with the postulate of 1:1 ligand/analyte interaction.

[5] = target: T2, TrxR1, Trx1 and Prdx2 (Homo sapiens, UniProt P32119); experiment: TrxR1-Trx1-Prdx2 system biochemical assay (NADPH consumption); conditions: 100 µM compound, H2O2 50 µM, NADPH 75 µM
T2 construct: purchased Novus Biological NBP1-44456 (TrxR1), NBC1-18541 (Trx1), NBC1-25855 (Prdx2)
T2 sequence (P32119 1-198): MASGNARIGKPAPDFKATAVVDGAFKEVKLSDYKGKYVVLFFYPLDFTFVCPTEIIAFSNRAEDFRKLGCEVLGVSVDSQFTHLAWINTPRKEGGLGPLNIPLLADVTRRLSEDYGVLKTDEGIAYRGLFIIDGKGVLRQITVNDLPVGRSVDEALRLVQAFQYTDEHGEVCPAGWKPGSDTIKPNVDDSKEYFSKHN
Description: NADPH consumption measurements were performed according to the method described by Nelson et al.[50] in the presence of TrxR1, Trx1 and Prdx2 (Novus Biological NBP1-44456, NBC1-18541 and NBC1-25855, respectively). The incubations contained TrxR1 0.5 µM, Trx1 5 µM, Prdx2 0.5 µM, H2O2 50 µM, NADPH 75 µM in 25 mM potassium phosphate pH 7, 100 mM ammonium sulphate. The experiments were carried out in 96-wells black plates and in triplicate. Briefly, TrxR1, Trx1, and H2O2 were pre-incubated for 5 min at 25 °C for thermal equilibration. Upon addition of NADPH the initial NADPH auto-fluorescence was recorded for 2 min on a scanning microplate reader (PerkinElmer Enspire; Ex. 340 nm, Em. 482 nm) to insure that less than 10% of NADPH is oxidized in the absence of Prdx2. Ultimately Prdx2 was added to start the enzymatic reaction, which was monitored during 60 minutes. To test the effect of the compounds on NADPH consumption, KH176m and KH176 were added at 100 µM final concentration, after the addition of Prdx2. The NADPH fluorescence was followed in time. […] A parallel reaction without TrxR was performed to quantified non-specific NADPH oxidation and used for background correction.

Structure (SMILES) | pEC50 [1] | Safety in Phase 1 ([2]; healthy adult male volunteers, NCT02544217) | Pharmacokinetic properties in Phase 1 ([2]; human, in vivo) | Ratio KH176m/KH176 in cells [3] | Binding to CCDC101 [4] | Effect on NADPH consumption [5]
Cc1c(C)c2c(c(C)c1O)CC[C@@](C)(C(=O)N[C@@H]1CCCNC1)O2.Cl [KH176, (S)-6-hydroxy-2,5,7,8-tetramethyl-N-((R)-piperidin-3-yl)chroman-2-carboxamide hydrochloride] | 6.57 to 7.46 | acceptable safety | good pharmacokinetic properties | – | – | –
CC1=C(C)C(=O)C(CC[C@](C)(O)C(=O)N[C@@H]2CCCNC2)=C(C)C1=O [KH176m] | – | – | – | 0.48 | no binding | significantly accelerate the consumption of NADPH
